In patent US9512139B2, “Conformationally constrained, fully synthetic macrocyclic compounds” (POLYPHOR AG, priority 2009, dated 2016):

Target: T1, Prostaglandin F (FP) Receptor (Homo sapiens, UniProt P43088)
T1 construct: host or cells: Ca2+ optimized hematopoietic cell lines (rat)
Assay: Ca2+ assay (FLIPR) for the GPCR prostaglandin F (FP) receptor, agonist and antagonist mode
Assay type: cell-based
Method: Biological and Pharmacological Methods 1. Ca^2+ Assays for the GPCRs Motilin Receptor, Prostaglandin F (FP) Receptor, 5-hydroxytryptamine 2B (5-HT2B) Receptor, and Purinoreceptor P2Y1
Assays were performed using on a FLIPR^TETRA fluorometric imaging plate reader (Molecular Devices) with ScreenWorks Version 2 (Molecular Devices) as device operating and data analysis software.
Dose dependent agonist and antagonist activities were determined. Percentage activation and percentage inhibition values were determined.
Percentage activation was determined upon initial addition of the sample compounds followed by 10 minutes incubation at 25° C. Following compound incubation, reference agonists were added at EC80 to determine percentage inhibition.
Reference agonists were purchased from reputable commercial vendors and prepared according to each ligand's specifications. All handling of ligands were done to ensure proper control throughout the experiments.
Example compounds were weighed on a Microbalance (Mettler MX5) and dissolved in 100% DMSO to a final concentration of 2.5 mM and subsequently diluted into the assay buffer.
The Assay buffer was a supplemented HBSS (Hank's Balanced Salt Solution). HBSS was supplemented with 20 mM HEPES (4-(2-hydroxyethyl)-piperazin-1-ethansulfonic acid) and 2.5 mM Probenecid (Sigma P8761).
GPCR assays were performed using Ca^2+ optimized hematopoietic cell lines (rat) with cultures never exceeding 90% confluency. Cells were harvested and seeded (from cultures at less than 90% confluency) at 50000 cells/well for a 96-well plate (12500 cells/well for 384). After seeding, the assay plates were incubated for forty-five (45) minutes at room temperature. After room temperature incubation, the assay plates were incubated at 37° C. 5% CO2 for 24 hours prior to assaying.
All GPCR assays were performed using Fluo-8 Ca^2+ dye. Ca^2+ dye was prepared at 1× dye concentration in GPCR assay buffer. After 24 hours of incubation, cells were washed with GPCR assay buffer, and then Ca^2+-dye (100 μL/well) was added.
The plates were incubated for 90 minutes at 30° C. 5% CO2 prior to FLIPR assay.
Compound plates were prepared to add 50 μL/well during the agonist assay mode. During the FLIPR assay, 50 μL/well from the compound plate was diluted 3-fold into the existing 100 μL/well from the dye loading step. Therefore all compounds were prepared as 3× the final concentration desired in the assay.
After completion of the first single addition assay run, assay plate was removed from the FLIPR Tetra and placed at 25° C. for seven (7) minutes before antagonist assay.
Using the EC80 values determined during the agonist assay, all pre-incubated sample compound and reference antagonist (if applicable) wells were stimulated at the EC80 of the reference agonist. As reference ligands for the first three assays their obvious natural ligands motilin, prostaglandin F2α, and serotonin (5-HT, 5-Hydroxytryptamine) were used; and for the P2Y1 assay 2MeSATP (2-methyl-thio-adeno-sine 5′-triphosphate, i.e. (2R,3S,4R)-5-(6-amino-2-methylsulfanyl-purin-9-yl)-3,4-dihydroxy-tetrahydrofuran-2-yl]methyl (hydroxy-phosphonooxy-phosphoryl)hydrogen phosphate) was applied.
After the addition of the reference agonist fluorescence was monitored for 180 sec using FLIPR Tetra.
Data Analysis and Results:
From the FLIPR data, with negative control correction enabled, the maximum statistic for each well was exported and percentage activation relative to Emax control was calculated.

T1 sequence (P43088 whole entry): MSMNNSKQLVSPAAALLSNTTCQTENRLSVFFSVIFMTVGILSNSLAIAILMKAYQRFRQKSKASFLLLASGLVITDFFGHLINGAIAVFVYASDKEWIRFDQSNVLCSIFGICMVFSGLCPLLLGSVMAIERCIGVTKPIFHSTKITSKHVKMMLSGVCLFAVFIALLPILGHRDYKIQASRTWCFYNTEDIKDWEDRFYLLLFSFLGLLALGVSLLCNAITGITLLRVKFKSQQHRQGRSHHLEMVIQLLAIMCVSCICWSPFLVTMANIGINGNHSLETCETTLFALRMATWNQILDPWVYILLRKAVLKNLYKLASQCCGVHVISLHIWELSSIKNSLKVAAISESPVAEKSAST

Compound	inhibition at 10 µM [%]	IC50 [nM]
CN1CCC[C@H](NC(=O)Cc2ccc3ccccc3c2)C(=O)N2C[C@@H](NC(=O)Nc3cccc(F)c3)C[C@H]2COc2cccc(c2)C1=O [Ex. 537, N-[(4S,6S,10S)-6-{[(3-fluoroanilino)carbonyl]amino}-14-methyl-9,15-dioxo-2-oxa-8,14-diazatricyclo[14.3.1.0^4,8]icosa-1(20),16,18-trien-10-yl]-2-(2-naphthyl)acetamide]	75	
Cc1cccc(NC(=O)N[C@H]2CCCN(C)C(=O)c3cccc(c3)OC[C@@H]3C[C@H](NC(=O)Cc4ccc5ccccc5c4)CN3C2=O)c1 [Ex. 506, N-[(4S,6S,10S)-14-methyl-9,15-dioxo-10-[(3-toluidinocarbonyl)amino]-2-oxa-8,14-diazatricyclo[14.3.1.0^4,8]icosa-1(20),16,18-trien-6-yl]-2-(2-naphthyl)acetamide]	55	2200
CCCCCCCCCC(=O)N[C@H]1C[C@H]2COc3cccc(c3)C(=O)N(C)CCC[C@H](NC(=O)Cc3ccc4ccccc4c3)C(=O)N2C1 [Ex. 542, N-[(4S,6S,10S)-14-methyl-10-{[2-(2-naphthyl)acetyl]amino}-9,15-dioxo-2-oxa-8,14-diazatricyclo[14.3.1.0^4,8]icosa-1(20),16,18-trien-6-yl]decanamide]	74	
CN1CCC[C@H](NC(=O)Cc2ccc3ccccc3c2)C(=O)N2C[C@@H](NC(=O)Nc3ccc(N(C)C)cc3)C[C@H]2COc2cccc(c2)C1=O [Ex. 538, N-[(4S,6S,10S)-6-({[4-(dimethylamino)anilino]carbonyl}amino)-14-methyl-9,15-dioxo-2-oxa-8,14-diazatricyclo[14.3.1.0^4,8]icosa-1(20),16,18-trien-10-yl]-2-(2-naphthyl)acetamide]	80	
CCCCCCCCCC(=O)N[C@H]1C[C@H]2COc3cccc(c3)C(=O)N(C)CCC[C@H](NC(=O)Cc3cccc4ccccc34)C(=O)N2C1 [Ex. 543, N-[(4S,6S,10S)-14-methyl-10-{[2-(1-naphthyl)acetyl]amino}-9,15-dioxo-2-oxa-8,14-diazatricyclo[14.3.1.0^4,8]icosa-1(20),16,18-trien-6-yl]decanamide]	82	
CCCCCCCCCC(=O)N[C@H]1CCCN(C)C(=O)c2cccc(c2)OC[C@@H]2C[C@H](NC(=O)C(c3ccccc3)c3ccccc3)CN2C1=O [Ex. 548, N-[(4S,6S,10S)-6-[(2,2-diphenylacetyl)amino]-14-methyl-9,15-dioxo-2-oxa-8,14-diazatricyclo[14.3.1.0^4,8]icosa-1(20),16,18-trien-10-yl]decanamide]	69	
COc1cccc(NC(=O)N[C@H]2C[C@H]3COc4cccc(c4)C(=O)N(C)CCC[C@H](NC(=O)Cc4ccc5ccccc5c4)C(=O)N3C2)c1 [Ex. 513, N-[(4S,6S,10S)-6-{[(3-methoxyanilino)carbonyl]amino}-14-methyl-9,15-dioxo-2-oxa-8,14-diazatricyclo[14.3.1.0^4,8]icosa-1(20),16,18-trien-10-yl]-2-(2-naphthyl)acetamide]	95	650
CN1CCC[C@H](NC(=O)Nc2cccc(N(C)C)c2)C(=O)N2C[C@@H](NC(=O)Cc3ccc4ccccc4c3)C[C@H]2COc2cccc(c2)C1=O [Ex. 507, N-[(4S,6S,10S)-10-({[3-(dimethylamino)anilino]carbonyl}amino)-14-methyl-9,15-dioxo-2-oxa-8,14-diazatricyclo[14.3.1.0^4,8]icosa-1(20),16,18-trien-6-yl]-2-(2-naphthyl)acetamide]	51	1100
CN1CCC[C@H](NC(=O)Cc2ccc3ccccc3c2)C(=O)N2C[C@@H](NC(=O)Cc3ccc4cccnc4c3)C[C@H]2COc2cccc(c2)C1=O [Ex. 540, N-[(4S,6S,10S)-14-methyl-9,15-dioxo-6-{[2-(7-quinolinyl)acetyl]amino}-2-oxa-8,14-diazatricyclo[14.3.1.0^4,8]icosa-1(20),16,18-trien-10-yl]-2-(2-naphthyl)acetamide]	43	
CN1CCC[C@H](NC(=O)Cc2ccc3ccccc3c2)C(=O)N2C[C@@H](NC(=O)Nc3cccc(N(C)C)c3)C[C@H]2COc2cccc(c2)C1=O [Ex. 508, N-[(4S,6S,10S)-6-({[3-(dimethylamino)anilino]carbonyl}amino)-14-methyl-9,15-dioxo-2-oxa-8,14-diazatricyclo[14.3.1.0^4,8]icosa-1(20),16,18-trien-10-yl]-2-(2-naphthyl)acetamide]	93	430
CCCCCCCCCC(=O)N[C@H]1CCCN(C)C(=O)c2cccc(c2)OC[C@@H]2C[C@H](NC(=O)Cc3ccc4ccccc4c3)CN2C1=O [Ex. 504, N-[(4S,6S,10S)-14-methyl-6-{[2-(2-naphthyl)acetyl]amino}-9,15-dioxo-2-oxa-8,14-diazatricyclo[14.3.1.0^4,8]icosa-1(20),16,18-trien-10-yl]decanamide]	62	441
CCCCCCCCCC(=O)N[C@H]1CCCN(C)C(=O)c2cccc(c2)OC[C@@H]2C[C@H](NC(=O)c3cccc(N4CCOCC4)c3)CN2C1=O [Ex. 510, N-[(4S,6S,10S)-14-methyl-6-[(3-morpholinobenzoyl)amino]-9,15-dioxo-2-oxa-8,14-diazatricyclo[14.3.1.0^4,8]icosa-1(20),16,18-trien-10-yl]decanamide]	42	1500

More lines, now with the values ahead:

inhibition at 10 µM [%]	IC50 [nM]	Compound
97	590	CN1CCC[C@H](NC(=O)CCCCCc2ccccc2)C(=O)N2C[C@@H](NC(=O)Cc3ccc4ccccc4c3)C[C@H]2COc2cccc(c2)C1=O [Ex. 516, N-[(4S,6S,10S)-14-methyl-6-([2-(2-naphthyl)acetyl]amino}-9,15-dioxo-2-oxa-8,14-diazatricyclo[14.3.1.0^4,8]icosa-1(20),16,18-trien-10-yl]-6-phenylhexanamide]
98	650	CN1CCC[C@H](NC(=O)CCCCOc2ccccc2)C(=O)N2C[C@@H](NC(=O)Cc3ccc4ccccc4c3)C[C@H]2COc2cccc(c2)C1=O [Ex. 517, N-[(4S,6S,10S)-14-methyl-6-{[2-(2-naphthyl)acetyl]amino}-9,15-dioxo-2-oxa-8,14-diazatricyclo[14.3.1.0^4,8]icosa-1(20),16,18-trien-10-yl]-5-phenoxypentanamide]
92	860	CN1CCC[C@H](NC(=O)CC(c2ccccc2)c2ccccc2)C(=O)N2C[C@@H](NC(=O)Cc3ccc4ccccc4c3)C[C@H]2COc2cccc(c2)C1=O [Ex. 523, N-[(4S,6S,10S)-14-methyl-6-{[2-(2-naphthyl)acetyl]amino}-9,15-dioxo-2-oxa-8,14-diazatricyclo[14.3.1.0^4,8]icosa-1(20),16,18-trien-10-yl]-3,3-diphenylpropanamide]
47		CN1CCC[C@H](NC(=O)C(c2ccccc2)c2ccccc2)C(=O)N2C[C@@H](NC(=O)Cc3ccc(-c4ccccc4)cc3)C[C@H]2COc2cccc(c2)C1=O [Ex. 547, N-[(4S,6S,10S)-6-[(2-[1,1′-biphenyl]-4-ylacetyl)amino]-14-methyl-9,15-dioxo-2-oxa-8,14-diazatricyclo[14.3.1.0^4,8]icosa-1(20),16,18-trien-10-yl]-2,2-diphenylacetamide]
53	1200	CN1CCC[C@H](NC(=O)Cc2ccc3ccccc3c2)C(=O)N2C[C@@H](NC(=O)Cc3ccc4ccccc4c3)C[C@H]2COc2cccc(c2)C1=O [Ex. 186, N-[(4S,6S,10S)-14-methyl-10-{[2-(2-naphthyl)acetyl]amino}-9,15-dioxo-2-oxa-8,14-diazatricyclo[14.3.1.0^4,8]icosa-1(20),16,18-trien-6-yl]-2-(2-naphthyl)acetamide]
62		CN1CCC[C@H](NC(=O)Cc2cccc3ccccc23)C(=O)N2C[C@@H](NC(=O)C(c3ccccc3)c3ccccc3)C[C@H]2COc2cccc(c2)C1=O [Ex. 549, N-[(4S,6S,10S)-14-methyl-10-{[2-(1-naphthyl)acetyl]amino}-9,15-dioxo-2-oxa-8,14-diazatricyclo[14.3.1.0^4,8]icosa-1(20),16,18-trien-6-yl]-2,2-diphenylacetamide]
